Common to all, as to assay type: cell-based
The test system of assay [1] is OVCAR-5. Put plainly: NCI60 5-dose screen, OVCAR-5. The note with it: Homo sapiens, ovarian cancer, Fig 1D, read-out: Log10 GI50 (OVCAR-5) (converted). On the procedure:
(§1) The screening methodology used in the NCI60 Cell 5-Doses screen is described in detail at https://dtp.cancer.gov/discovery_development/nci-60/methodology.htm. Briefly, cells are seeded in 96 well plates at an appropriate density and incubated for 1 day. After 1 day, some of the plates are processed to determine a time zero density. To the remaining plates, compounds are added over a 5-log M concentration range (1 log dilutions from 10^-4M to 10^-8M). Plates are incubated for two additional days, then fixed and stained with sulforhodamine B. Growth inhibition is calculated relative to cells without drug treatment and the time zero control. The GI50 is the concentration of a compound that causes 50% growth inhibition, relative to the no drug control.

For assay [2], the system named is MALME-3M. As to the kind of experiment: NCI60 5-dose screen, MALME-3M. Particulars: Homo sapiens, melanoma, Fig 1D, read-out: Log10 GI50 (MALME-3M) (converted). On the procedure: as §1
Assay [3] deals with UACC-257. Put plainly: NCI60 5-dose screen, UACC-257. Particulars: Homo sapiens, melanoma, Fig 1D, read-out: Log10 GI50 (UACC-257) (converted). As for the experimental part:
as §1

The values below come from publication PMC11542830, “3-nitropyridine analogues as novel microtubule-targeting agents” (PLOS ONE, 2024).

The structures appear in SMILES notation.

Consider `Cc1cc(C)cc(Nc2ccc([N+](=O)[O-])c(NCCN3CCOCC3)n2)c1` [Compound 4AZA2891, 6-(3,5-dimethylanilino)-2-(2-morpholinoethylamino)-3-nitropyridine], for which the GI50 (as a rule, the concentration giving 50% growth inhibition) was 36.3 nM in assay [1], 15.8 µM in assay [2] and > 100 µM in assay [3].
